# Source: ChEMBL document CHEMBL1157845, “Structure-activity relationship of new anti-tuberculosis agents derived from oxazoline and oxazole benzyl esters” (Eur J Med Chem, 2010)
# The source made the active and inactive calls. Unless noted, the rule behind the calls is not given here.
# Tests used:
# [1] = tested on: Mycobacterium tuberculosis; assay: Antimycobacterial activity against Mycobacterium tuberculosis Erdman infected in BALB/c mouse assessed as reduction of bacterial load at 200 mg/kg, po qd for 5 days per week administered 60 days after infection measured after 85 days post infection; format: functional, organism-based; design: dose 200 mg/kg
# [2] = tested on: Mycobacterium tuberculosis; assay: Antimycobacterial activity against Mycobacterium tuberculosis H37Rv ATCC 27294 in GAS medium after 1 week by microplate alamar blue assay; format: functional; details: H37Rv ATCC 27294, 168 h
# Vero = assay: Cytotoxicity against african green monkey Vero cells by colorimetric assay; format: cell-based; details: Chlorocebus sabaeus
# [3] = tested on: Mycobacterium tuberculosis; assay: Antimycobacterial activity against Mycobacterium tuberculosis H37Rv ATCC 27294 in GAST medium after 1 week by microplate alamar blue assay; format: functional; details: H37Rv ATCC 27294, 168 h
# Staphylococcus aureus = assay: Antibacterial activity against Staphylococcus aureus SG 511; format: functional, organism-based
# Candida albicans = assay: Antifungal activity against Candida albicans; format: functional, organism-based
# Mycobacterium avium [4] = assay: Antimycobacterial activity against Mycobacterium avium MAC 100; format: functional, organism-based
# Proteus vulgaris = assay: Antibacterial activity against Proteus vulgaris OX 19; format: functional, organism-based
# [5] = tested on: Mycolicibacterium fortuitum; assay: Antimycobacterial activity against Mycobacterium fortuitum B; format: functional, organism-based
# [6] = tested on: Sporobolomyces salmonicolor; assay: Antimicrobial activity against Sporobolomyces salmonicolor SBUG 549; format: functional, organism-based
# Mus musculus [7] = assay: Toxicity in mouse assessed as change in body weight at 100 mg/kg, po qd for 5 days followed by 2 days rest and 200 mg/kg, po qd for 5 days; format: organism-based; details: in vivo
# Escherichia coli = assay: Antibacterial activity against Escherichia coli SG 458; format: functional, organism-based
# Liver microsomes = assay: Metabolic stability in Sprague-Dawley rat microsomes assessed as compound remaining after 15 mins by HPLC analysis; format: ADME, Microsome; details: 0.25 h
# Mycolicibacterium vaccae [8] = assay: Antimycobacterial activity against Mycobacterium vaccae 10670 by agar diffusion assay; format: functional, organism-based
# Mycobacterium avium [9] = assay: Antimycobacterial activity against Mycobacterium avium MAC 116; format: functional, organism-based
# Mycobacterium avium [10] = assay: Antimycobacterial activity against Mycobacterium avium MAC 108; format: functional, organism-based
# Mycolicibacterium aurum [11] = assay: Antimycobacterial activity against Mycobacterium aurum SB 66; format: functional, organism-based
# Mycobacterium avium [12] = assay: Antimycobacterial activity against Mycobacterium avium MAC 109; format: functional, organism-based
# [13] = Chemical stability in simulated gastric fluid assessed as compound remaining after 2 hrs by HPLC analysis; format: physicochemical; details: simulated gi fluid
# Mycolicibacterium aurum [14] = assay: Antimycobacterial activity against Mycobacterium aurum DSM 43536; format: functional, organism-based
# [15] = tested on: Mycolicibacterium fortuitum; assay: Antimycobacterial activity against Mycobacterium fortuitum B by agar diffusion assay; format: functional, organism-based
# Micrococcus luteus = assay: Antibacterial activity against Micrococcus luteus ATCC 10240; format: functional, organism-based
# Bacillus subtilis = assay: Antibacterial activity against Bacillus subtilis ATCC 6633; format: functional, organism-based
# Mus musculus [16] = assay: Toxicity in mouse assessed as behavioral change at 100 mg/kg, po qd for 5 days followed by 2 days rest and 200 mg/kg, po qd for 5 days; format: organism-based; details: in vivo
# Mus musculus [17] = assay: Toxicity in mouse assessed as change in gross appearance at 100 mg/kg, po qd for 5 days followed by 2 days rest and 200 mg/kg, po qd for 5 days; format: organism-based; details: in vivo
# [18] = tested on: Mycobacterium tuberculosis; assay: Antimycobacterial activity against Mycobacterium tuberculosis H37Rv ATCC 27294 incubated 10 days under anaerobic condition measured after 24 hrs recovery in air by luciferase based low oxygen recovery assay; format: functional
# Colletotrichum = assay: Antifungal activity against Glomerella; format: functional, organism-based
# Mycobacterium avium [19] = assay: Antimycobacterial activity against Mycobacterium avium MAC 101; format: functional, organism-based
# [20] = tested on: Mycolicibacterium smegmatis; assay: Antimycobacterial activity against Mycobacterium smegmatis SG 987; format: functional, organism-based
# Mycolicibacterium vaccae [21] = assay: Antimycobacterial activity against Mycobacterium vaccae 10670; format: functional, organism-based
smiles,measurement,setting,value
O=C(OCc1ccccc1)c1coc(-c2cccc(F)c2)n1,Activity,[1],inactive
same,MIC,[2],0.91 µM
same,IC50,Vero,> 128 µM
same,MIC,[3],1.42 µM
O=C(OCc1ccccc1)c1coc(-c2ccccc2Cl)n1,Activity,Staphylococcus aureus,inactive
same,Activity,Candida albicans,inactive
same,Activity,Mycobacterium avium [4],inactive
same,Activity,Proteus vulgaris,inactive
same,Activity,[5],inactive
same,Activity,[6],inactive
same,Activity,[1],inactive
same,Activity,Mus musculus [7],Non-toxic
same,Activity,Escherichia coli,inactive
same,Stability,Liver microsomes,8.8%
same,Activity,Mycolicibacterium vaccae [8],Active
same,Activity,Mycobacterium avium [9],inactive
same,Activity,Mycobacterium avium [10],inactive
same,Activity,Mycolicibacterium aurum [11],inactive
same,MIC,[2],0.73 µM
same,Activity,Mycobacterium avium [12],inactive
same,Stability,[13],4.2%
same,IC50,Vero,> 128 µM
same,Activity,Mycolicibacterium aurum [14],inactive
same,Activity,[15],Active
same,Activity,Micrococcus luteus,inactive
same,Activity,Bacillus subtilis,inactive
same,Activity,Mus musculus [16],Non-toxic
same,Activity,Mus musculus [17],Non-toxic
same,MIC,[3],1.69 µM
same,MIC,[18],11.4 µM
same,Activity,Colletotrichum,inactive
same,Activity,Mycobacterium avium [19],inactive
same,Activity,[20],inactive
same,Activity,Mycolicibacterium vaccae [21],inactive
O=C(OCc1ccccc1)c1coc(-c2cncc(Br)c2)n1,Activity,[1],inactive
same,MIC,[2],2.37 µM
same,IC50,Vero,> 128 µM
same,MIC,[3],2.24 µM
same,MIC,[18],> 128 µM
O=C(OCc1ccccc1)[C@@H]1COC(c2ccc(F)c([N+](=O)[O-])c2)=N1,Activity,Staphylococcus aureus,inactive
same,Activity,Candida albicans,inactive
same,Activity,Mycobacterium avium [4],inactive
same,Activity,Proteus vulgaris,inactive
same,Activity,[5],inactive
same,Activity,[6],inactive
same,Activity,[1],inactive
same,Activity,Mus musculus [7],Non-toxic
same,Activity,Escherichia coli,inactive
same,Stability,Liver microsomes,13%
same,Activity,Mycolicibacterium vaccae [8],Active
same,Activity,Mycobacterium avium [9],inactive
same,Activity,Mycobacterium avium [10],inactive
same,Activity,Mycolicibacterium aurum [11],inactive
same,MIC,[2],6.24 µM
same,Activity,Mycobacterium avium [12],inactive
same,Stability,[13],2.2%
same,IC50,Vero,> 128 µM
same,Activity,Mycolicibacterium aurum [14],inactive
same,Activity,[15],Active
same,Activity,Micrococcus luteus,inactive
same,Activity,Bacillus subtilis,inactive
same,Activity,Mus musculus [16],Non-toxic
same,Activity,Mus musculus [17],Non-toxic
same,MIC,[3],0.95 µM
same,MIC,[18],26 µM
same,Activity,Colletotrichum,inactive
same,Activity,Mycobacterium avium [19],inactive
same,Activity,[20],inactive
same,Activity,Mycolicibacterium vaccae [21],inactive
COc1ccc(-c2nc(C(=O)OCc3ccccc3)co2)cc1F,Activity,[1],inactive
same,MIC,[2],5.55 µM
same,IC50,Vero,> 128 µM
same,MIC,[3],6.99 µM
O=C(OCc1ccccc1)[C@@H]1COC(c2ccc([N+](=O)[O-])cc2)=N1,Activity,[1],inactive
same,MIC,[2],30.6 µM
same,IC50,Vero,> 128 µM
same,MIC,[3],7.59 µM
O=C(OCc1ccccc1)c1coc(-c2ccc(F)cc2[N+](=O)[O-])n1,Activity,[1],inactive
same,MIC,[2],2.4 µM
same,IC50,Vero,> 128 µM
same,MIC,[3],9.9 µM
COc1ccc(-c2nc(C(=O)OCc3ccccc3)co2)cc1,Activity,Staphylococcus aureus,inactive
same,Activity,Candida albicans,inactive
same,Activity,Mycobacterium avium [4],inactive
same,Activity,Proteus vulgaris,inactive
same,Activity,[5],inactive
same,Activity,[6],inactive
same,Activity,[1],inactive
same,Activity,Mus musculus [7],Non-toxic
same,Activity,Escherichia coli,inactive
same,Stability,Liver microsomes,14%
same,Activity,Mycolicibacterium vaccae [8],Active
same,Activity,Mycobacterium avium [9],inactive
same,Activity,Mycobacterium avium [10],inactive
same,Activity,Mycolicibacterium aurum [11],inactive
same,MIC,[2],1.72 µM
same,Activity,Mycobacterium avium [12],inactive
same,Stability,[13],0.4%
same,IC50,Vero,> 128 µM
same,Activity,Mycolicibacterium aurum [14],inactive
same,Activity,[15],Active
same,Activity,Micrococcus luteus,inactive
same,Activity,Bacillus subtilis,inactive
same,Activity,Mus musculus [16],Non-toxic
same,Activity,Mus musculus [17],Non-toxic
same,MIC,[3],1.8 µM
same,Activity,Colletotrichum,inactive
same,Activity,Mycobacterium avium [19],inactive
same,Activity,[20],inactive
same,Activity,Mycolicibacterium vaccae [21],inactive
O=C(OCc1ccccc1)[C@@H]1COC(c2cccc(Cl)c2)=N1,Activity,[1],inactive
same,MIC,[2],11.6 µM
same,IC50,Vero,> 128 µM
same,MIC,[3],1.8 µM
CCOc1ccc(-c2nc(C(=O)OCc3ccccc3)co2)cc1,Activity,[1],inactive
same,MIC,[2],15.5 µM
same,IC50,Vero,> 128 µM
same,MIC,[3],1.97 µM
same,MIC,[18],29.7 µM
Nc1ccc(-c2nc(C(=O)OCc3ccccc3)co2)cc1,Activity,[1],inactive
same,MIC,[2],1.98 µM
same,IC50,Vero,> 128 µM
same,MIC,[3],3.67 µM
same,MIC,[18],68.6 µM
COc1ccc(-c2nc(C(=O)OCc3ccccc3)co2)cc1Cl,Activity,[1],inactive
same,MIC,[2],2.35 µM
same,IC50,Vero,> 128 µM
same,MIC,[3],5.33 µM
O=C(OCc1ccccc1)c1coc(-c2cncc(-c3ccccc3)c2)n1,Activity,[1],inactive
same,MIC,[2],1.49 µM
same,IC50,Vero,> 128 µM
same,MIC,[3],0.98 µM
O=C(OCc1ccccc1)[C@@H]1COC(c2ccc([N+](=O)[O-])c(F)c2)=N1,Activity,[1],inactive
same,MIC,[2],30.2 µM
same,IC50,Vero,> 128 µM
same,MIC,[3],3.68 µM
same,MIC,[18],59 µM
O=C(OCc1ccccc1)[C@@H]1COC(c2ccc(OCc3ccccc3)c(F)c2)=N1,Activity,[1],inactive
same,MIC,[2],0.77 µM
same,IC50,Vero,> 128 µM
same,MIC,[3],1.42 µM
O=C(OCc1ccccc1)c1coc(-c2ccc([N+](=O)[O-])c(F)c2)n1,Activity,[1],inactive
same,MIC,[2],35.4 µM
same,IC50,Vero,> 128 µM
same,MIC,[3],2.66 µM
COc1ccc(C2=N[C@H](C(=O)OCc3ccccc3)CO2)cc1,Activity,[1],inactive
same,MIC,[2],26.1 µM
same,IC50,Vero,> 128 µM
same,MIC,[3],2.29 µM
COc1ccc(CNC(=O)c2coc(-c3ccc([N+](=O)[O-])cc3)n2)cc1OC,Activity,[1],inactive
same,MIC,[2],35.8 µM
same,IC50,Vero,> 128 µM
same,MIC,[3],49.5 µM
O=C(OCc1ccccc1)c1coc(-c2ccc(Cl)cc2)n1,Activity,[1],inactive
same,MIC,[2],18.9 µM
same,IC50,Vero,> 128 µM
same,MIC,[3],7.77 µM
same,MIC,[18],56.2 µM
Cc1oc(-c2ccc(F)cc2[N+](=O)[O-])nc1C(=O)OCc1ccccc1,Activity,[1],inactive
same,MIC,[2],15 µM
same,IC50,Vero,> 128 µM
same,MIC,[3],4.62 µM
same,MIC,[18],> 128 µM
O=C(OCc1ccccc1)c1coc(-c2cccc(Cl)c2)n1,Activity,[1],inactive
same,MIC,[2],1.25 µM
same,IC50,Vero,> 128 µM
same,MIC,[3],0.99 µM
O=C(OCc1ccccc1)c1coc(-c2ccc([N+](=O)[O-])cc2F)n1,Activity,[1],inactive
same,MIC,[2],0.7 µM
same,IC50,Vero,> 128 µM
same,MIC,[3],1.65 µM
same,MIC,[18],11.6 µM
Cc1oc(-c2ccccc2OCc2ccccc2)nc1C(=O)OCc1ccccc1,Activity,[1],inactive
same,MIC,[2],28.3 µM
same,IC50,Vero,110 µM
same,MIC,[3],> 128 µM
O=C(OCc1ccccc1)c1coc(-c2ccc(Br)nc2)n1,Activity,[1],inactive
same,MIC,[2],2.54 µM
same,IC50,Vero,> 128 µM
same,MIC,[3],1.84 µM
same,MIC,[18],25.1 µM
C[C@@H]1OC(c2ccc(F)cc2[N+](=O)[O-])=N[C@@H]1C(=O)OCc1ccccc1,Activity,[1],inactive
same,MIC,[2],12.5 µM
same,IC50,Vero,38.1 µM
same,MIC,[3],4.11 µM
Cc1oc(-c2ccccc2)nc1C(=O)OCc1ccccc1,Activity,[1],inactive
same,MIC,[2],3.92 µM
same,IC50,Vero,35 µM
same,MIC,[3],15.2 µM
same,MIC,[18],> 128 µM
O=C(OCc1ccccc1)c1coc(-c2ccccc2OCc2ccccc2)n1,Activity,Staphylococcus aureus,inactive
same,Activity,Candida albicans,inactive
same,Activity,Mycobacterium avium [4],inactive
same,Activity,Proteus vulgaris,inactive
same,Activity,[5],inactive
same,Activity,[6],inactive
same,Activity,[1],inactive
same,Activity,Mus musculus [7],Non-toxic
same,Activity,Escherichia coli,inactive
same,Stability,Liver microsomes,13%
same,Activity,Mycolicibacterium vaccae [8],Active
same,Activity,Mycobacterium avium [9],inactive
same,Activity,Mycobacterium avium [10],inactive
same,Activity,Mycolicibacterium aurum [11],inactive
same,MIC,[2],62.6 µM
same,Activity,Mycobacterium avium [12],inactive
same,Stability,[13],4.2%
same,IC50,Vero,> 128 µM
same,Activity,Mycolicibacterium aurum [14],inactive
same,Activity,[15],Active
same,Activity,Micrococcus luteus,inactive
same,Activity,Bacillus subtilis,inactive
same,Activity,Mus musculus [16],Non-toxic
same,Activity,Mus musculus [17],Non-toxic
same,MIC,[3],10.3 µM
same,Activity,Colletotrichum,inactive
same,Activity,Mycobacterium avium [19],inactive
same,Activity,[20],inactive
same,Activity,Mycolicibacterium vaccae [21],inactive
COc1ccc(C2=N[C@H](C(=O)OCc3ccccc3)CO2)cc1OC,Activity,[1],inactive
same,MIC,[2],39 µM
same,MIC,[3],21.6 µM
